Like-named read-outs stand apart in the source and are kept apart here.
Columns and labels:
[1] = test system: T2D pts aged ≥ 65 years on basal insulin; assay: DELIVER 3 retrospective real-world study; format: in vivo, human
Protocol: Older patients (pts) with T2D are disproportionately impacted by treatment-related hypoglycemia and its adverse consequences. […] Pts had ≥ 12 months (mo) of baseline data and ≥ 6 mo of follow-up data. The effect of cohort on A1C reduction, hypoglycemia incidence/event rate, and achievement of A1C goal at 6 mo were assessed by generalized linear models or logistic regression models with adjustment for baseline characteristics. […] This is an ENCORE abstract previously presented at ADA2017. Funding and editorial support provided by Sanofi.

[2] = test system: adults with T2D using basal insulin; assay: DELIVER2 real-world study, switch of basal insulin; format: in vivo, human; details: PS matched
Protocol: Methods: DELIVER2 used data from Predictive Health Intelligence Environment database of medical records representing 37 integrated delivery networks. […] The endpoints were A1C change from baseline, incidence and event rate of hypoglycemia (hypo) (identified by ICD-9/ICD-10 and/or plasma glucose level ≤ 70 mg/dL), and HCU (incidence and event rate of all-cause, diabetes-, and hypo-related visits) within 6 m.

patients with T2D = assay: Network meta-analysis Gla-300 vs IDeg (inputs of the cost-effectiveness model); format: in vivo, human; details: estimated by network meta-analysis
Text: Methods: This modelling analysis simulated a cohort representing patients in the EDITION 2 and 3 trials using the IMS Core Diabetes Model with a time horizon of 50 years (lifetime) for 1,000,000 patients starting at 62 years old. […] The treatment cost was $1,561 per SHE and $13.65 per NSHE (2015 $). Utilities to estimate quality-adjusted life years (QALYs) for multiple comorbidities were applied using the minimum utility approach. A disutility of -0.0118 was applied for SHE, and method of diminishing marginal disutility for NSHE.

[3] = test system: T2DM pts uncontrolled on BOT with other BI; assay: TOP-2 prospective observational study, 6 month interim analysis; format: in vivo, human
Protocol: Adult pts currently on a BOT with an indication for changing their insulin therapy due to non-achievement of glycemic targets (A1c 7.5–10.0%) are enrolled. Primary endpoint (EP) is the rate of pts achieving a fasting plasma glucose (FPG) ≤ 110 mg/dL after 6 and 12 months, respectively. Secondary EPs include change in A1c, FPG, body weight (BW) and insulin dose, hypoglycemia incidence and safety. Here we report on an interim analysis including all German pts, for whom 6 month results were available 15 months after study start (n = 661). […] Less pts experienced nocturnal hypoglycemia (0.5% vs 1.2%). […] Final results are expected for 2018 (Fig. 1)

participants with T1DM = assay: Multiple-dosing crossover euglycemic glucose clamp study, steady-state PK/PD; format: in vivo, human
Text: For both insulins, participants received 0.4 (n = 24) or 0.6 U/kg/day (n = 24) at ~ 8 am for 8 days. Main endpoint: within-day variability (fluctuation) of smoothed glucose infusion rate (GIR) over a 24-h dosing period (GIR-smFL0-24). […] This is an ENCORE abstract previously presented at ADA2017. Funding and editorial support provided by Sanofi (Fig. 1)

diabetic pregnant women = format: in vivo, human; details: 2009-2016, medical records
Protocol: Methods: We analyzed the medical records of the diabetic pregnant women who were attended at the Endocrinology Clinic of Hospital do Servidor Público Municipal between 2009 and 2016. The incidence of fetal macrosomia, prematurity, respiratory distress, hospitalization in intensive care unit and abortion were analyzed and correlated to the glycemic control. Good glycemic control was defined by the presence of at least 80% of capillary blood glucose within the following range: pre-prandial < 90 mg/dL, 1 h postprandial < 140 mg/dL, 2 h postprandial < 120 mg/dL

patient with glucagonoma = assay: Case report: glucagonoma; format: in vivo, human; details: zinc vitamin supplement and Octreotide
Text: Case report: patient four, hospitalized in 2015 for investigation of cholestatic syndrome associated with pancreatic mass of 51x48 mm evidenced on abdominal tomography (15/05/03). The patient underwent corpocaudal pancreatectomy and total splenectomy, with free surgical margins, but with angiolymphatic invasion. […] The patient received chemotherapy with gemcitabine which was replaced by Folfirinox. However, after 1 year without medical follow-up, they returned presenting weight loss, cutaneous disseminated lesions in the upper and lower limbs (Fig. 1), trunk and genitalia, angular cheilitis, macroglossia, deep venous thrombosis of the lower limbs and glycemia above 400 mg/dl. Figure 1: Cutaneous disseminated lesions It was used several antimicrobial regimens to treat skin lesions, unsuccessful, and performed biopsies of the skin, that diagnosis psoriasiform spongious dermatitis. The case was referred to the endocrinology departament and we did the diagnosis of glucagonoma, based on the symptoms and skin lesions, confirmed by pancreatic glucagon levels of 722 pg/ml (reference value < 208 pg/ml). […] We considered diagnosis hypothesis of adrenal insufficiency and after offered hydrocortisone, it was observed improvement in their condition in 24 h.

OVX female Swiss mice = format: in vivo, mouse
Protocol: (§1) Methods: Female Swiss mice with 80–100 days of life were OVX, after 2 weeks females in anestrous were distributed in the control groups (CTL): fed with normolipid diet and water containing 0.01% ethanol (vehicle); BPA control (CBPA): normolipid diet and water containing 0.01% ethanol and 1 μg/mL BPA; HFD: diet containing 36 g% fat and vehicle; and (HBPA): HFD and BPA. After 3 months, glucose tolerance test (GTT) and islet isolation for insulin secretion were performed (CEUA UFRJ-Macaé: MAC035 approval). Data were analyzed for the distribution of normality (Shapiro–Wilk), followed by analysis of variances: parametric (ANOVA followed by Newman–Keuls) or non-parametric (Kruskal–Wallis followed by Dunns; P < 0.05).

[4] = test system: islets isolated from OVX female Swiss mice; assay: Glucose-stimulated insulin secretion of isolated islets; format: cell-based, mouse; details: 2.8 mM glucose; HFD islets 1.2 ± 0.14
Protocol: as §1

male Wistar rats = format: in vivo, rat
Protocol: In addition, experimental studies of effects of different doses are important in assessing the safety of a drug. The objective was to evaluate the lipid biomarkers in rats treated with several doses of prednisone. […] The treatment was daily for of 21 days, with weekly measures of body weight, food consumption and calories ingested on days 0, 8 and 16 of treatment. On the last day, the caloric gain was evaluated and then the rats were anesthetized and killed by decapitation to collect the whole blood for serum biochemical analyzes. All data were statistically evaluated with significance of 5%.

[5] = test system: patients submitted to liver transplantation; format: in vivo, human; details: Tacrolimus 95% CI 1.2–32.5, p = 0.029; PDN 95% CI 2.4–21, 8, p < 0.001
Text: A total of 152 patients were included. […] Comparisons were done with Chi square tests and analysis of independent risk factors with multivariate logistic regression.

[6] = test system: Normoglycemic adult Wistar rats; details: for TOTG glycemia, 120 min: CONT 93.7 ± 4.1
Protocol: The side effects are primarily determined by dosage and time of use. The objective was to evaluate the effects of increasing doses of PRD on the action of endogenous insulin in Wistar rats. Normoglycemic adult rats weighing 450–510 g were divided into 5 groups, differentiated by their daily treatment (18 days) orally, as the PRD dose used [CONT, PRD1 (0.625 mg/kg), PDR2 (1.250 mg/kg), PRD3 (2.500 mg/kg) and PRD4 ([…])]. Rats received water and food ad libitum, and on 0, 8 and 16 days of treatment the fasting glycemia was measured. On the 17th day, the oral glucose tolerance test (TOTG) was performed, collecting blood for glucose levels at fasting times (− 1 min) and 30, 60 and 120 min after administration of glucose solution. […] The data were statistically analyzed with significance of 5%.

[7] = test system: male rats with mild diabetes (neonatal streptozotocin); format: in vivo, rat
Protocol: Background: The prednisone (PRD) is a glucocorticoid that may lead to the development of temporary hyperglycemia. […] The objective was to evaluate the effects of PRD in mild diabetic rats by biochemical and immunological biomarkers. […] The rats were separated into 4 groups: control (C), treated control C + PRD (oral treatment of 1.25 mg/kg/day PRD); diabetic DM (mild diabetes) and treated diabetic DM + PRD (mild diabetes, treatment with same dose as C + PRD group). Untreated groups received vehicle, adjusted volume according to body weight. The treatment daily for 21 days and it were weekly measured the body weight, food and water intake, and glycemia. In the 3rd week of treatment, the oral glucose tolerance test (OGTT) and insulin tolerance test (TTI) were performed, area under the glycemic curve (ASC) values were calculated. In the 21st day, the rats were killed and the blood was collected for serum biochemical, leukogram and immunoglobulin G determinations. All data was statistically evaluated with 5% significance.

[8] = test system: patients with long-standing T1DM; assay: Mixed-meal tolerance test + oral 5 mg glibenclamide, ultrasensitive C-peptide; format: in vivo, human; details: 4 of 6 T1DM patients
Protocol: Fasting blood was taken for measurement of C-peptide (ELISA; Mercodia® (Uppsala, Sweden; cat.Nº10-1141-01). Thirty one patients (24,5%) had C-peptide > 10 pmol/L or 0.03 ng/ml. Six patients were randomly recruited to undergo a mixed-meal tolerance test + oral 5 mg glibenclamide.

[9] = 0.625 mg/kg daily orally (PRD1)
[10] = 1.250 mg/kg daily orally (PRD2)

## insulin glargine [Gla-300]
[1]; 95% CI 0.581, 1.098, P = 0.166
  achieved A1C < 7.0%, OR vs. other basal insulins: 0.798
[1]; 95% CI 0.749, 1.248, P = 0.797
  achieved A1C < 8.0%, OR vs. other basal insulins: 0.967
[2]
  A1C during 6 m follow-up: 8.40%
[2]; 1827 pts per group
  Mean baseline A1C: 8.95%
Patients with T2D
  A1C reduction over 24 weeks: 1.00%
[3]; n = 661
  mean (± SD) A1c before switching: 8.21 ± 0.8%
[3]; six months after switching to Gla-300
  HbA1c, TOP-2 FAS 6 month [mean±SD]: 7.67 ± 1.0%
Participants with T1DM; 0.4 U/kg/day once daily ~8 am for 8 days, steady state, n = 24, p = 0.047
  Within-day GIR variability (GIR-smFL0-24), lower vs. Deg-100: 20%
Participants with T1DM; 0.6 U/kg/day, n = 24
  Within-day GIR variability (GIR-smFL0-24) vs. Deg-100: comparable

## CN(C)C(=N)N=C(N)N [D + PA + MTF, metformin]
Diabetic pregnant women
  pregnant women with adverse perinatal outcomes / women in group: 5/12

## C[C@@H](O)[C@@H]1NC(=O)[C@H](CCCCN)NC(=O)[C@@H](Cc2c[nH]c3ccccc23)NC(=O)[C@H](Cc2ccccc2)NC(=O)[C@@H](NC(=O)[C@H](N)Cc2ccccc2)CSSC[C@@H](C(=O)N[C@H](CO)[C@@H](C)O)NC1=O [Octreotide]
Patient with glucagonoma
  skin lesions (necrolytic migratory erythema): effective in reducing the number and extent of lesions

## CC(C)(c1ccc(O)cc1)c1ccc(O)cc1 [BPA, Bisphenol-A]
OVX female Swiss mice; 15 min, HFD 444 ± 13
  glycemia in GTT: 427 ± 17 mg/dL
OVX female Swiss mice; 30 min, HFD 453 ± 23
  glycemia in GTT: 450 ± 22 mg/dL
[4]
  insulin secretion: 1.8 ± 0.2 ng/islet h

## C[C@]12C=CC(=O)C=C1CC[C@@H]1[C@@H]2C(=O)C[C@@]2(C)[C@H]1CC[C@]2(O)C(=O)CO [prednisone]
Male Wistar rats; 5.0 mg/Kg daily (PRD2), n = 7
  calories ingested, 16th day of treatment: 93.2 ± 20.4 kcal/day
  calories ingested, day 0: 63.7 ± 12.3 kcal/day
  calories ingested, day 8 of treatment: 69.0 ± 18.1 kcal/day
Male Wistar rats; 2.5 and 5.0 mg/Kg, 21 days, p > 0.05
  body weight, dietary intake, serum triglyceride, total cholesterol, VLDL, LDL, non-HDL cholesterol: no differences
[5]
  independent risk factor for PTDM, OR: 7.2
[6]; 0.625 mg/kg (PRD1), day 17, CONT 87.7 ± 5.7
  TOTG glycemia, time -1 min: 106 ± 5.8 mg/dL
[6]; 0.625 mg/kg (PRD1)
  TOTG glycemia, 120 min: 122.8 ± 15.7 mg/dL
[6]; [9]
  fasting glycemic increase compared to CONT, day 8: 30%
  fasting glycemic increase compared to CONT, day 16: 20%
[6]; 0.625 mg/kg vs PRD4
  glycemia increase of PRD1 compared to PRD4, day 16: 16%
[6]; 1.250 mg/kg (PRD2)
  TOTG glycemia, 120 min: 120.6 ± 11.6 mg/dL
[6]; [10]
  fasting glycemic increase compared to CONT, day 8: 27%
  fasting glycemic increase compared to CONT, day 16: 9%
[6]; PRD4
  ASCp, increased glycemic load vs CONT, interval 30–60 min: 36%
[7]; DM + PRD, 1.25 mg/kg/day
  glycemia increasing vs C group, all weeks of treatment: 51%
[7]; DM + PRD, day 21
  lymphocytes, increase vs C group: 19%
  neutrophils, increase vs C group: 200%
  total leukocytes, increase vs C group: 30%
[7]; DM + PRD, oral 1.25 mg/kg/day
  food intake increasing vs C group, 2nd and 3rd week: 18%
[7]; DM + PRD, serum
  high-density lipoprotein, decrease vs C group: 8%
  triglycerides, decrease vs C group: 21%
  very low-density lipoproteins, decrease vs C group: 10%
[7]; DM + PRED group, 3rd week
  OGTT glycemia, 30 min: 275 mg/dL
  OGTT glycemia, 60 min: 258 mg/dL
  OGTT glycemia, 120 min: 161 mg/dL
[7]; DM and DM + PRD groups
  body weight decrease, all measures: about 27%

## COc1ccc(Cl)cc1C(=O)NCCc1ccc(S(=O)(=O)NC(=O)NC2CCCCC2)cc1 [sulfonylurea, glibenclamide]
[8]
  patients with positive response (C-peptide > 200 pmol/L): 66.7%
